Experimental findings from ChEMBL document CHEMBL4602704, “Discovery and Optimization of Glucose Uptake Inhibitors” (J Med Chem, 2020) are described below.

Data set [1] in a line: in vitro. The settings on record: human, Caco-2.
The nature of data set [2]: in vivo. The settings on record: mouse, po, 30 mg/kg.
Data set [3] can be described thus: in vivo. Particulars: rat.
A short description of data set [4]: in vivo. Particulars: mouse, iv, 10 mg/kg.
Data set [5] can be described thus: in vivo. The settings on record: mouse, po, 30 mg/kg. This is another data set of the same source.
Data set [6] is described as follows: in vitro. Particulars: human, Caco-2. This is another data set of the same source.
Data set [7] can be described thus: in vivo. Particulars: CD-1, mouse, brain, po, 100 mg/kg.
Data set [8] is described as follows: in vitro. The settings on record: human, liver microsomes. On the technique in general: Microsomes from liver hold many membrane-bound enzymes, among them those of drug oxidation.
Data set [9] in a line: in vivo. Particulars: dog, po, 10 mg/kg.
A short description of data set [10]: in vitro. The settings on record: mouse, plasma.
Data set [11] is described as follows: physchem. The settings on record: phosphate buffered saline, pH 4.5.
The nature of data set [12]: in vivo. Particulars: rat, po, 30 mg/kg.
Data set [13] in a line: in vivo. The settings on record: rat, po, 30 mg/kg. This is another data set of the same source.
Data set [14] in a line: in vitro. The settings on record: rat, liver microsomes.
Data set [15] can be described thus: in vitro. Particulars: dog, liver microsomes.
The nature of data set [16]: in vivo. Particulars: rat, iv, 10 mg/kg.
A short description of data set [17]: in vivo. The settings on record: mouse, brain and plasma, po, 30 mg/kg.
Data set [18] can be described thus: in vivo. Particulars: dog, po, 10 mg/kg. This is another data set of the same source.
A short description of data set [19]: in vivo. Particulars: mouse, iv, 10 mg/kg. The source holds these as a separate data set.
Data set [20] in a line: physchem. The settings on record: phosphate buffered saline, pH 6.8.
A short description of data set [21]: in vivo. Particulars: mouse, po, 30 mg/kg. The source holds these as a separate data set.
Data set [22] can be described thus: in vivo. Particulars: rat, po, 30 mg/kg. This is another data set of the same source.
A short description of data set [23]: in vivo. The settings on record: mouse.
The nature of data set [24]: in vitro. Particulars: mouse, liver microsomes.
Data set [25] in a line: in vivo. Particulars: rat, iv, 10 mg/kg. This is another data set of the same source.
Data set [26] in a line: physchem. The settings on record: phosphate buffered saline, pH 2.
The nature of data set [27]: Apparent permeability in human Caco2 cells. The data set is classed as ADME, cell-based. The settings on record: Caco-2. For orientation: Caco-2 cells form a polarised layer with tight junctions and transporters.

Converted amounts (≈) assume the structure as drawn. Bounds are passed on as bounds.

On to `CC1(NC(=O)COc2cccc(-c3nc4c(c(Nc5ccc(-c6cn[nH]c6)cc5)n3)CN(C3CCC3)CC4)c2)CC1`, for which, in [1], the Papp A→B at 5 µM came to 11.2 ×10⁻⁶ cm/s. The AUC in [2] came to 5890 ng·h/mL; in data set [22], 6810 ng·h/mL. Further, the half-life in data set [3] was 2.59 h; in [8], 1.93 h; in [15] it was 0.967 h; in data set [23] it was 0.785 h. For the same compound, the values for the Vd in data set [4] and in [25] were 1.7 L/kg and 4.51 L/kg, respectively. Moreover, the figures for the Cmax in data set [5] and in data set [13] were 2520 ng/mL and 1680 ng/mL, respectively. The Papp B→A at 5 µM in [6] was found to be 4.33 ×10⁻⁶ cm/s. The same compound came in with a Kp at 1 h in data set [7] of 0.05. Besides, the bioavailability in data set [9] turned out to be 29%; in data set [12], 49.4%; in [18], 19%; in data set [21] it was 45.4%. In data set [10], this compound yielded an amount remaining at 18 h above 95%. In addition, the solubility was found to be 256 µM (≈ 141 µg/mL) in [11], 1.4 µM (≈ 0.77 µg/mL) in data set [20] and 291 µM (≈ 160 µg/mL) in data set [26]. The figures for the half-life at 2 µM in data set [14] and in data set [24] were 1.05 h and 1.17 h, respectively. Besides, the clearance in data set [16] came to 37 mL/min/kg; in data set [19], 40 mL/min/kg. In addition, the Kp at 2 h in data set [17] was determined as 0.05.

In turn, `CC(C)(C)NC(=O)COc1cccc(-c2nc3c(c(Nc4ccc(-c5cn[nH]c5)cc4)n2)CN(C2CCC2)CC3)c1` yielded a Papp A→B at 5 µM in [1] of 4.58 ×10⁻⁶ cm/s. This compound also came in with a Papp B→A at 5 µM in [6] of 6.09 ×10⁻⁶ cm/s. The compound also came in with a Kp at 1 h in [7] of 0.1.

Regarding `CCOc1ccc2nc(-c3cccc(OCC(=O)NC(C)C)c3)nc(Nc3ccc(-c4cn[nH]c4)cc3)c2c1`, the Papp in data set [27] stood at 2 ×10⁻⁶ cm/s. Also, the values for the solubility in [11], in [20] and in data set [26] were 0.01 µM (≈ 0.00523 µg/mL), 0.03 µM (≈ 0.0157 µg/mL) and 3.36 µM (≈ 1.76 µg/mL), respectively.

Usually Papp A→B stands for how fast a substance crosses the layer from the apical side. A higher Papp A→B goes with ready permeation. In general, AUC refers to concentration integrated over time. As a reminder, the half-life is how long it takes for the measured level to halve. One may read the Vd as a proportionality between amount in the body and measured concentration, not a real space. The low end stands for little distribution into tissue, the high end for wide distribution into tissue. The term Cmax denotes the peak of the concentration-time curve. The Papp B→A is how fast a substance crosses the layer from the basolateral side. One may read the bioavailability as the share of a dose that reaches the circulation, judged against a reference dose that is usually intravenous. The low end stands for little systemic uptake, the high end for much systemic uptake. For orientation: share remaining means what is left of the initial amount, in per cent. A low value points to more turnover. A word on the solubility: it is the dissolved amount per volume that the medium holds. In general, clearance refers to the volume of plasma or blood freed of the substance per unit of time. A low value points to inefficient removal. Usually Papp stands for the rate of passage across a membrane or cell layer, normalised by area and donor concentration.
